Assay results from US5552156A, “Liposomal and micellular stabilization of camptothecin drugs” (Ohio State University, priority 1995, dated 1996).
Counter-ions that a name gives are not always drawn. One block for each molecule: values may come before it.

Tests used:
Format in all cases: physicochemical
[1] = HPLC assay of lactone ring hydrolysis, free in PBS or associated with liposomes or micelles; conditions: for carboxylate/lactone ratio (C/L) free drug: final equilibrium; for carboxylate/lactone ratio (C/L) free drug / t1/2 free drug: free in PBS, pH 7.4, 37° C.; for t1/2 free drug: lactone hydrolysis
Description: A high performance liquid chromatography assay was used to determine the rate of hydrolysis of camptothecin and topotecan free in aqueous solution and to compare such rates with the rate of hydrolysis for the same drugs when bound to the DMPG and DMPC liposome membranes. The assay was conducted under near physiological conditions; the pH was 7.4, the temperature was 37° C. and the ionic strength was physiological. A Spectroflow model 980 fluorescence detector coupled to an HP 3392A integrator which acquired and processed the chromatograms, was used. For camptothecin, an Ultrasphere ODS C-18 250 mm long column was used. The mobile phase consisted of 32% acetonitrile, 67% 0.1M acetate buffer, pH 5.5, and 1% 01.M sodium dodecylsulfate at a flow rate of 1 mL/min. The detector was set to 370 nm excitation wavelength and a 418 nm long pass emission filter. A 1 μM solution of camptothecin in PBS was prepared and incubated at 37° C. Immediately after mixing the drug stock solution with PBS and at intervals of 5 min thereafter, 50 μL aliquots were taken out and mixed with 150 μL methanolic internal standard, 9-toluoylamidocamptothecin and either analyzed immediately or kept cold under dry ice. 150 μL of this mixture was diluted with 125 μL water and 200 μL was injected. The ratio of the peak areas corresponding to the intact lactone form of the camptothecin drug and the internal standard at a particular time was normalized to that at the time of mixing and was considered as the concentration of the intact lactone form.
For topotecan the excitation wavelength was 362 nm and the emission was observed through a 470 long wave pass filter. The stationary phase was Waters Nova-Pak C-18 150mm long column. The mobile phase consisted of 500 mL 0.1M KH2 PO4, 550 mL acetonitrile, 4.2 mL triethylamine (distilled over molecular sieves), 4.44 g sodium dioctylsulfosuccinate (DOSS), and 970 ml water. The pH was adjusted to 6.0 with H3 PO4. Internal standard solution contained 50×10^-9 g acridine from Eastman and 20×10^-3 M DOSS in methanol and was always kept cold at ≤-20° C. Next 150 μL or cold internal standard solution was mixed with 50 μL aliquot containing topotecan, centrifuged for 1 minute and the supernatant was either analyzed immediately or stored at -20° C. for analysis at a later time, within 2 hours. Samples were monitored at time points from 0 minutes, that is, immediately following dissolution, up to 72 hours.
The kinetics of lactone ring hydrolysis for free camptothecin, CMC and topotecan are shown in of FIGS. 7a, 7b and 7c. Analysis of the decay profile for camptothecin, CMC and topotecan free in PBS was accomplished using a nonlinear least squares program.

[2] = Steady-state fluorescence anisotropy in solvents and liposomes; conditions: for steady-state anisotropy (a), DMPC: DMPC liposomes
Description: (§1) Steady-state fluorescence measurements were obtained on a SLM Model 4800C. spectrofluorometer with a thermostated cuvette compartment. This instrument was interfaced with an IBM PS/2 model 55 SX computer. Excitation and emission spectra were recorded with an excitation resolution of 8 nm and an emission resolution of 4 nm. In all cases spectra were corrected for background fluorescence and scatter from unlabeled lipids or from solvents by subtraction of the spectrum of a blank. Steady-state fluorescence intensity measurements were made in the absence of polarizer. Steady-state anisotropy (a) measurements were determined with the instrument in the "T-format" for simultaneous measurement of two polarized intensities. The alignment of polarizers were checked routinely using a dilute suspension of 0.25 μm polystyrene microspheres from Polysciences, Inc, Warrington, Pa., in water; anisotropy values of >0.99 were obtained. The anisotropy was calculated from a=(Ivv -GlVH)/(Ivv +GIVH), where G-IVH /IHH and the subscripts refer to vertical and horizontal orientations of the excitation and emission polarizers, respectively.
(§2) Anisotropy measurements for camptothecin, camptothecin carboxylate sodium salt, and 10,11-methylenedioxycamptothecin were conducted using exciting light of 370 nm and 420 nm long wave pass filters on each emission channel in order to isolate the fluorescence signal from background scatter and signal. For topotecan a 400 nm excitation wavelength and a 500 nm emission filter were used and for 9-aminocamptothecin a 375 nm excitation and a wavelength 420 nm emission filter were used. For AMC and CMC, a 370 nm excitation wavelength and a 400 nm emission filter were used. For 10-hydroxycamptothecin 375 nm excitation wavelength 500 nm emission filter was used. Emission filters were obtained from Oriel Corp. Stamford, Conn. The combination of exciting light and emission filters allows one to adequately separate the fluorescence from the background signal. The contribution of background fluorescence, together with scattered light, was typically less than 1% of the total intensity. Since the lactone ring of the camptothecin drug undergoes hydrolysis in aqueous medium, all measurements were completed within the shortest possible time, less than 1 minute after mixing the drug stock solution with PBS or the liposomes. In each case, analysis was initiated immediately after mixing the drug stock solution with PBS or with the liposomes. All measurements were performed at 37° C. unless otherwise noted.
(§3) While the spectral changes provide qualitative evidence that the camptothecin drugs bind the liposome membranes, fluorescence anisotropy titration, offers the most sensitive means for quantitatively assessing the extent of the binding. The fluorescence anisotropy titration was performed according to the method of Burke and Tritton, Biochemistry 24: 1768-1776 (1985).
A steady-state fluorescence anisotropy (a) measurement is related to the rotational rate of the fluorescent molecule through the Perrin Equation: […]
where a0 is the limiting fluorescence anisotropy value, that is, the anisotropy value in the absence of depolarizing rotations, T is the excited-state lifetime, and .phi. is the rotational correlative time of the fluorophore. According to Equation 1, changes in either the T or .phi. values of a fluorescent compound can modulate its steady-state anisotropy.
The limiting fluorescence anisotropy (a0) values were also measured. The maximum values of (a) were obtained by dissolving the camptothecin drugs in the viscous solvent glycerol and cooling the samples to low temperatures. Steady-stated anisotropy (a) values were determined for samples containing 1 μM drug at 37° C.
Where the solvent viscosity is high and temperature is low, depolarizing rotations are at a minimum. By extrapolating these (a) values to -25° C., the limiting anisotropy values (a0) for the camptothecin drugs, were determined. […]

[3] = Fluorescence excitation and emission spectra of camptothecin drugs free in solution and bound to liposomes
From the text: The camptothecin drugs are intrinsically intensely fluorescent. Fluorescence is associated with the extended conjugation of the quinoline ring system. The liposomes of Examples 1-7 were characterized for the presence of the camptothecin drugs, using excitation and emission spectrography, and fluorescence anisotropy.
as §1, §2
The relative fluorescence intensity of 1×10^-6 M of camptothecin free in PBS buffer at 37° C. is shown. The emission spectra of the camptothecin was recorded using exciting light of 370 nm.
An exciting light of 390 nm was used to record the emission spectra of topotecan. A decrease in the emission intensity is observed for topotecan associated with the DMPG liposome.
All spectra were recorded using camptothecin drug concentrations of 2
μM. The DMPC and DMPG concentrations were 0.29 M. Experiments were
conducted in PBS buffer at 37° C.
Also found in Table II is a relative index of the emission intensity levels from these camptothecin drugs in PBS at their respective excitation and emission λMAX.

[4] = Overall association constant by fluorescence anisotropy titration, DMPC liposomes
Description: as §3
The concentrations of free camptothecin drugs and camptothecin drugs associated with liposomes were determined at various lipid concentrations. All experiments were conducted in glass tubes pretreated with a silating agent, Surfacil, from Pearce Chemical, Rockford, Ill. The titration was conducted at camptothecin drug concentration of 1×10^-6 M in PBS at 37° C. Anisotropy values at each lipid concentration were determined within less than 30 seconds following the addition of the camptothecin drugs to the liposome suspension. The (a) values were determined for fixed drug concentration, typically 2 μM, while the lipid concentration was varied from 0 to 0.29M. By varying the lipid concentration rather than varying the drug concentration, the problem of self-association phenomenon which occurs for camptothecin drugs concentrations in excess of 10 μM is avoided. Also, the well-known phenomenon known as inner filter effect which occurs using fluorescent material at high optical densities is a is avoided.
Adsorption isotherms like those shown in FIGS. 4A and 4B were used to determine overall association constants for the camptothecin drugs. Overall association constants are defined as: […]
where [AB ] represents the concentration of the camptothecin drug bound to the vesicle membrane, [AF ] represents the concentration of free drug, and [L] represents the total lipid concentration in the liposome suspension. This equation is valid when the concentration of free lipid is approximately equal to the concentration of total lipid, that is, the concentration of free lipid is in great excess over the concentration of bound drug. Provided this concentration is satisfied, K may be determined from the inverse of the slope of a double reciprocal plot according to (Burke and Tritton, Biochemistry 24:1776, 1985). In such a plot, 1/bound fraction of the total camptothecin drug is plotted vs. 1/[lipid], with a y-intercept value of 1.
FIG. 6A is the double-reciprocal plot for the associations of CMC, camptothecin, camptothecin carboylate sodium salt and topotecan with DMPC at 37° C.
The stabilization of camptothecin drugs was determined using different lipids. Three types of lipids (and thus 3 types of membranes) were examined: fluid-phase and electroneutral L-α-dimyristoylphosphatidylcholine (DMPC); fluid-phase and negatively-charged L-α-dimyristoylphosphatidylglycerol (DMPG), and solid-phase and electroneutral L-α-distearoylphosphatidylcholine (DSPC). While DMPC and DMPG have identical chain length, the charge on their head groups differ. DMPC and DSPC have identical head groups, but DMPC has acyl chains having 14 carbons per chain, which are four carbons shorter than the DSPC, which has 18 carbons per chain. This difference of 4-carbon chain length results in DMPC being fluid-phase at 37° C. while DSPC is solid-phase. The 7 camptothecin drugs listed in Table III were combined with liposomes containing the above lipids.
FIGS. 4A and 4B show the extent of camptothecin drug binding to liposomes as a function of lipid concentration for DMPC and DMPG liposomes. DMPC liposomes were made as in Example 1, at lipid concentrations from 0 to 0.29M, using CMC, 10-hydroxycamptothecin, 10,11-methylenedioxy-camptothecin, topotecan, camptothecin, and camptothecin carboxylate sodium salt, as shown in FIG. 4B. DMPG liposomes were made as in Example 2, at lipid concentrations from 0 to 0.29M, using 9-chloro-10,11-methylenedioxycamptothecin CMC, 10,11-methylenedioxycamptothecin, camptothecin, and topotecan, 9-aminocamptothecin, as shown in FIG. 4A. […]

[5] = in PBS, pH 7.4, at excitation and emission λMAX

Structure (SMILES): CCC1(O)C(=O)OCc2c1cc1n(c2=O)Cc2cc3c(N)c4c(cc3nc2-1)OCO4 (centres unmarked) [9-amino-10,11-methylenedioxycamptothecin]
- lactone hydrolysis when associated with liposomes ([1]; DMPC and DMPG liposomes): some hydrolysis occurred at 1 hour
- lactone ring hydrolysis at 5 hours ([1]; DMPG or DMPC liposomes, 5 hours): ≤ 40%
- carboxylate/lactone ratio (C/L) free drug [1]: 5.1
- t1/2 free drug [1]: 26.9 min
- steady-state anisotropy (a), DMPC ([2]; pH 2, 37° C.): 0.160
- steady-state anisotropy (a), PBS ([2]; pH 3, 37° C.): 0.049
- emission maxima as the pH is decreased ([3]; 2 μM, excitation 370 nm, decreased pH): 430 nm
- shift of emission maxima upon decrease of pH / protonation ([3]; free in PBS): about 120 nm
- λMAX emission, PBS ([3]; free in PBS, pH 7.4, 37° C.): 550 nm
- Relative Fluorescence [3, 5]: 0.001
- λMAX excitation ([3]; pH 1.5): 373 nm
- Relative Fluorescence ([3]; pH 1.5, PBS): 0.06
- λMAX emission, PBS ([3]; pH 1.5, free in PBS): 430 nm
- λMAX excitation ([3]; pH 7.4, 2 μM drug, PBS, 37° C.): 404 nm

- carboxylate/lactone ratio (C/L) free drug [1]: 7.5
- t1/2 free drug [1]: 23.8 min
- reduction in emission intensity levels relative to camptothecin ([3]; free in PBS, pH 7.4): 1000 -fold
- λMAX emission, PBS ([3]; free in PBS, pH 7.4, 37° C.): 456 nm
- Relative Fluorescence [3, 5]: 0.001
- λMAX excitation ([3]; pH 7.4, 2 μM drug, PBS, 37° C.): 378 nm
Structure (SMILES): CCC1(O)C(=O)OCc2c1cc1n(c2=O)Cc2cc3c([N+](=O)[O-])cccc3nc2-1 (centres unmarked) [9-nitrocamptothecin]

Structure (SMILES): CCC(O)(C(=O)O)c1cc2n(c(=O)c1CO)Cc1cc3ccccc3nc1-2 (centres unmarked) [camptothecin carboxylate, camptothecin carboxylate sodium salt]
- steady-state anisotropy (a), DMPC ([2]; 37° C., 1/a vs. 1/[lipid] plot): 0.102
- steady-state anisotropy (a), PBS ([2]; 1 μM drug, 37° C.): 0.008
- limiting fluorescence anisotropy a0 ([2]; extrapolated to -25° C., glycerol): 0.377
- steady-state anisotropy (a), glycerol ([2]; glycerol, 1 μM drug, 37° C.): 0.327
- steady-state anisotropy (a), octanol ([2]; octanol, 1 μM drug, 37° C.): 0.073
- λMAX emission, DMPC ([3]; DMPC liposomes 0.29 M, pH 7.4, 37° C.): 437 nm
- λMAX emission, DMPG ([3]; DMPG liposomes 0.29 M, pH 7.4, 37° C.): 435 nm
- λMAX emission, PBS ([3]; free in PBS, pH 7.4, 37° C.): 443 nm
- Relative Fluorescence [3, 5]: 1
- λMAX excitation ([3]; pH 7.4, 2 μM drug, PBS, 37° C.): 377 nm
- overall association constant K, DMPC ([4]; DMPC (electroneutral, fluid phase), PBS, 37° C.): 40 M⁻¹
- reduction in binding to DMPC liposomes upon hydrolysis to carboxylate ([4]; relative to camptothecin): three-fold reduction
